Measurements: patent US8269000B2, “Substituted pyrimidine and triazine compounds” (Gruenenthal GmbH, priority 2008, dated 2012)

biological target: T1, rat B1R (Rattus norvegicus, UniProt P97583); assay: FLIPR Ca2+ functional study on bradykinin receptor 1 (rB1R CHO K1 cells); assay type: cell-based; conditions: % inhibition rat B1R at 10 μM
T1 construct: expressed in transfected cells; host or cells: CHO K1 cells
T1 sequence (P97583 1-337): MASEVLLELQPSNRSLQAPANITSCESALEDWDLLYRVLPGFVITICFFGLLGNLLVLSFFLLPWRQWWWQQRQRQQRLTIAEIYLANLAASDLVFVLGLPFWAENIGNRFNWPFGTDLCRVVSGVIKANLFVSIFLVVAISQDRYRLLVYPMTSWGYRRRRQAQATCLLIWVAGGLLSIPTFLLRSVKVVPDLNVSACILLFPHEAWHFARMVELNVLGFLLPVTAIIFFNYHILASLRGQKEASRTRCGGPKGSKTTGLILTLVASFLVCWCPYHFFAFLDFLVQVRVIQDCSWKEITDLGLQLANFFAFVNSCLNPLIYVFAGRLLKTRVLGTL
Description: The agonistic or antagonistic activity of substances can be quantified on the bradykinin receptor 1 (B1R) of the species human and rat using ectopically expressing cell lines (CHO K1 cells) and with the aid of a Ca^2+-sensitive dye (Fluo-4) using a fluorescent imaging plate reader (FLIPR). The indication in % activation is based on the Ca^2+ signal after addition of Lys-Des-Arg^9-bradykinin (0.5 nM) or Des-Arg^9-bradykinin (100 nM). Antagonists lead to suppression of the Ca^2+ influx after the addition of the agonist. % Inhibition compared with the maximum achievable inhibition is indicated.
The agonistic or antagonistic activity of substances can be determined on the bradykinin receptor 1 (B1R) of the species human and rat using the following assay. According to this assay, the Ca^2+ influx through the channel is quantified with the aid of a Ca^2+-sensitive dye (Fluo-4 type, Molecular Probes Europe BV, Leiden, Netherlands) using a Fluorescent Imaging Plate Reader (FLIPR, Molecular Devices, Sunnyvale, USA).
Chinese hamster ovary cells (CHO K1 cells) which have been stably transfected with the human B1R gene (hB1R cells) or with the B1R gene of the rat (rB1R cells) are used. For functional studies, the cells are plated out on black 96-well plates having a clear base (BD Biosciences, Heidelberg, Germany or Greiner, Frickenhausen, Germany) in a density of 20,000-35,000 cells/well. The cells are left overnight at 37° C. and with 5% CO2 in culture medium (hB1R cells: Nutrient Mixture Ham's F12, Gibco Invitrogen GmbH, Karlsruhe, Germany or DMEM, Sigma-Aldrich, Taufkirchen, Germany; rB1R cells: D-MEM/F12, Gibco Invitrogen GmbH, Karlsruhe, Germany), with 10 vol.% FBS (fetal bovine serum, Gibco Invitrogen GmbH, Karlsruhe, Germany or PAN Biotech GmbH, Aidenbach, Germany). On the following day, the cells are loaded for 60 minutes at 37° C. with 2.13 μM Fluo-4 (Molecular Probes Europe BV, Leiden, Netherlands) in HBSS buffer (Hank's buffered saline solution, Gibco Invitrogen GmbH, Karlsruhe, Germany) […] (Sigma-Aldrich, Taufkirchen, Germany) and 10 mM HEPES (Sigma-Aldrich, Taufkirchen, Germany). The plates are then washed twice with HBSS buffer, and HBSS buffer additionally containing 0.1% BSA (bovine serum albumin; Sigma-Aldrich, Taufkirchen, Germany), 5.6 mM glucose and 0.05% gelatin (Merck KGaA, Darmstadt, Germany) is added to the plates. After incubation for a further 20 minutes at room temperature, the plates are inserted into the FLIPR for Ca^2+ measurement. Alternatively, washing is carried out with buffer A (15 mM HEPES, 80 mM NaCl, 5 mM KCl, 1.2 mM CaCl2, 0.7 mM MgSO4, 2 g/l glucose, 2.5 mM probenecid) followed by loading with buffer A with added 2.5 μM Fluo-4 and 0.025% Pluronic F127 (Sigma-Aldrich, Taufkirchen, Germany). The cells are then washed twice with buffer A and incubated for 30 minutes at room temperature with buffer A additionally containing 0.05% BSA and 0.05% gelatin and are then inserted into the FLIPR for Ca^2+ measurement. The Ca^2+-dependent fluorescence is measured before and after the addition of substances (λex=488 nm, λem=540 nm). Quantification is carried out by measuring the highest fluorescence intensity (FC, fluorescence counts) over time.
The FLIPR protocol consists of two substance additions. Test substances (10 μM) are first pipetted onto the cells and the Ca^2+ influx is compared with the control (hB1R: Lys-Des-Arg^9-bradykinin>=50 nM; rB1R: Des-Arg^9-bradykinin 10 μM). This gives the activation in %, based on the Ca^2+ signal after addition of Lys-Des-Arg^9-bradykinin (>=50 nM) or Des-Arg^9-bradykinin (10 μM). After 10-20 minutes' incubation, Lys-Des-Arg^9-bradykinin (hB1R) or Des-Arg^9-bradykinin (rB1R) is applied in the concentration of the EC80, and the influx of Ca^2+ is likewise determined. Antagonists lead to suppression of the Ca^2+ influx. The % inhibition compared with the maximum achievable inhibition is calculated. […]

SMILES | % inh. (rat B1R) 10 μM [%]
COc1cc(C)c(S(=O)(=O)N(C)CCOc2nccc(N3CCC(CCN4CCCCC4)CC3)n2)c(C)c1 [G_CC-031] | 104
COc1cc(C)c(S(=O)(=O)N2CCC[C@H]2COc2nccc(N3CCC(CCN4CCCCC4)CC3)n2)c(C)c1 [G_CC-037] | 102
COc1cc(C)c(S(=O)(=O)N2CCC[C@@H]2COc2nccc(N3CCC(CNC(=O)c4ccncc4)(N4CCN(C)CC4)CC3)n2)c(C)c1 [G_CC-054, N-[[1-[2-[[(2R)-1-(4-methoxy-2,6-dimethylphenyl)sulfonyl-2-pyrrolidinyl)methoxy]-4-pyrimidinyl]-4-(4-methyl-1-piperazinyl)-4-pipendinyl]methyl]-4-pyridinecarboxamide] | 80
COc1cc(C)c(S(=O)(=O)N(C)C(COc2nccc(N3CCN(C4CCN(C)CC4)CC3)n2)c2ccccc2)c(C)c1 (stereo not shown) [G_CC-059, 4-methoxy-N,2,6-trimethyl-N-[2-[[4-[4-(1-methyl-4-pipendinyl)-1-piperazinyl]-2-pyrimidinyl]oxy]-1-phenylethyl]benzenesulfonamide] | 98

same assay, conditions: CHO-K1, % inhibition rat B1R at 10 μM, read-out: % inh. (rat B1R) 10 μM

SMILES | inhibition at 10 µM [%]
COc1cc(C)c(S(=O)(=O)N2CCC[C@H]2COc2nccc(N3CCC4(CC3)OCc3ccccc34)n2)c(C)c1 [G_CC-033, 1′-[2-[[(2S)-1-(4-methoxy-2,6-dimethylphenyl)sulfonyl-2-pyrrolidinyl]methoxy]-4-pyrimidinyl]spiro[1H-isobenzofuran-3,4′-piperidine]] | 68
COc1cc(C)c(S(=O)(=O)N2CCC[C@H]2COc2nccc(N3CCC(n4c(=O)[nH]c5cc(Cl)ccc54)CC3)n2)c(C)c1 [G_CC-034, 6-chloro-3-[1-[2-[[(2S)-1-(4-methoxy-2,6-dimethylphenyl)sulfonyl-2-pyrrolidinyl]methoxy]-4-pyrimidinyl]-4-piperidinyl]-1H-benzimidazol-2-one] | 93
COc1cc(C)c(S(=O)(=O)N2CCCCC2COc2nccc(N3CCC4(CC3)CCN(c3ccc(F)cc3)C4=O)n2)c(C)c1 (stereo not shown) [G_CC-038, 3-(4-fluorophenyl)-8-[2-[[1-(4-methoxy-2,6-dimethylphenyl)sulfonyl-2-piperidinyl]methoxy]-4-pyrimidinyl]-3,8-diazaspiro[4.5]decan-4-one] | 94
COc1cc(C)c(S(=O)(=O)N(C)CCOc2nccc(N3CCC4(CC3)CCN(c3ccc(F)cc3)C4=O)n2)c(C)c1 [G_CC-042, N-[2-[[4-[3-(4-fluorophenyl)-4-oxo-3,8-diazaspiro[4.5]decan-8-yl]-2-pyrimidinyl]oxy]ethyl]-4-methoxy-N,2,6-trimethylbenzenesulfonamide] | 87
COc1cc(C)c(S(=O)(=O)N(C)CCOc2nccc(N3CCC4(CC3)C(=O)NCC4c3cccc(C(F)(F)F)c3)n2)c(C)c1 (stereo not shown) [G_CC-043, 4-methoxy-N,2,6-trimethyl-N-[2-[[4-[4-oxo-1-[3-(trifluoromethyl)phenyl]-3,8-diazaspiro[4.5]decan-8-yl]-2-pyrimidinyl]oxy]ethyl]benzenesulfonamide] | 70
COc1cc(C)c(S(=O)(=O)N(C)CCOc2nccc(N3CCC4(CC3)C(=O)N(C)CC4c3ccc(F)cc3)n2)c(C)c1 (stereo not shown) [G_CC-044, N-[2-[[4-[1-(4-fluorophenyl)-3-methyl-4-oxo-3,8-diazaspiro[4.5]decan-8-yl]-2-pyrimidinyl]oxy]ethyl]-4-methoxy-N,2,6-trimethylbenzenesulfonamide] | 68
COc1cc(C)c(S(=O)(=O)N(C)CCOc2nccc(N3CCC4(CCN(Cc5ccc(F)cc5)C4=O)CC3)n2)c(C)c1 [G_CC-045, N-[2-[[4-[3-[(4-fluorophenyl)methyl]-4-oxo-3,8-diazaspiro[4.5]decan-8-yl]-2-pyrimidinyl]oxy]ethyl]-4-methoxy-N,2,6-trimethylbenzenesulfonamide] | 96
COc1cc(C)c(S(=O)(=O)N(C)CCOc2nccc(N3CCC4(CCN(Cc5ccccc5)C4=O)CC3)n2)c(C)c1 [G_CC-046, N-[2-[[4-(3-benzyl-4-oxo-3,8-diazaspiro[4.5]decan-8-yl)-2-pyrimidinyl]oxy]ethyl]-4-methoxy-N,2,6-trimethylbenzenesulfonamide] | 96

Results, then the compound that gave them:

inhibition at 10 µM [%] | SMILES
72 | COc1cc(C)c(S(=O)(=O)N2CCC[C@H]2COc2nccc(N3CCC4(CC3)C(=O)NCC4c3cccc(C(F)(F)F)c3)n2)c(C)c1 (stereo partly drawn) [G_CC-049, 8-[2-[[(2S)-1-(4-methoxy-2,6-dimethylphenyl)sulfonyl-2-pyrrolidinyl]methoxy]-4-pyrimidinyl]-1-[3-(trifluoromethyl)phenyl]-3,8-diazaspiro[4.5]decan-4-one]
73 | COc1cc(C)c(S(=O)(=O)N2CCC[C@H]2COc2nccc(N3CCC4(CC3)C(=O)N(C)CC4c3ccc(F)cc3)n2)c(C)c1 (stereo partly drawn) [G_CC-050, 1-(4-fluorophenyl)-8-[2-[[(2S)-1-(4-methoxy-2,6-dimethylphenyl)sulfonyl-2-pyrrolidinyl]methoxy]-4-pyrimidinyl]-3-methyl-3,8-diazaspiro[4.5]decan-4-one]
96 | COc1cc(C)c(S(=O)(=O)N2CCC[C@H]2COc2nccc(N3CCC4(CCN(Cc5ccccc5)C4=O)CC3)n2)c(C)c1 [G_CC-053, 3-benzyl-8-[2-[[(2S)-1-(4-methoxy-2,6-dimethylphenyl)sulfonyl-2-pyrrolidinyl)methoxy]-4-pyrimidinyl]-3,8-diazaspiro[4.5]decan-4-one]
98 | COc1cc(C)c(S(=O)(=O)N2CCCCC2COc2nccc(N3CC4CC3CN4Cc3ccncc3)n2)c(C)c1 (stereo not shown) [G_CC-056, 5-[2-[[1-(4-methoxy-2,6-dimethylphenyl)sulfonyl-2-piperidinyl]methoxy]-4-pyrimidinyl]-2-(4-pyridylmethyl)-2,5-diazabicyclo[2.2.1]heptane]
90 | COc1cc(C)c(S(=O)(=O)N2CCCC(Oc3nccc(N4CC5CC4CN5Cc4ccncc4)n3)C2)c(C)c1 (stereo not shown) [G_CC-057, 5-[2-[[1-(4-methoxy-2,6-dimethylphenyl)sulfonyl-3-piperidinyl]oxy]-4-pyrimidinyl]-2-(4-pyridylmethyl)-2,5-diazabicyclo[2.2.1]heptane]
93 | COc1cc(C)c(S(=O)(=O)N2CCC[C@H]2COc2nccc(N3CC4CC3CN4Cc3ccncc3)n2)c(C)c1 (stereo partly drawn) [G_CC-058, 5-[2-[[(2S)-1-(4-methoxy-2,6-dimethylphenyl)sulfonyl-2-pyrrolidinyl)methoxy]-4-pyrimidinyl]-2-(4-pyridylmethyl)-2,5-diazabicyclo[2.2.1]heptane]
81 | COc1cc(C)c(S(=O)(=O)N(C)C(COc2nccc(N3CCC4(CCN(Cc5ccccc5)C4=O)CC3)n2)c2ccccc2)c(C)c1 (stereo not shown) [G_CC-061, N-[2-[[4-(3-benzyl-4-oxo-3,8-diazaspiro[4.5]decan-8-yl)-2-pyrimidinyl]oxy]-1-phenylethyl]-4-methoxy-N,2,6-trimethylbenzenesulfonamide]
